# Reference: PubChem BioAssay AID1599 (NINDS Approved Drug Screening Program, 2009)
# Test system: C. elegans polyQ-huntingtin mechanosensory neurons, touch response
# Assay: restoration of touch response, mutant HTT neurons – whole organism, C. elegans mechanosensory neurons, N-terminal huntingtin (AID 1599)
row,Structure (SMILES),EC50 [µM]
1,CC(C)(C)c1ccc(C(O)CCCN2CCC(C(O)(c3ccccc3)c3ccccc3)CC2)cc1 (stereo unspecified),0.9
2,CC(=O)OCC1=C(C(=O)O)N2C(=O)[C@@H](NC(=O)CCCC(N)C(=O)O)C2SC1 (stereo partly specified),2
3,CCCCNc1ccc(C(=O)OCCN(C)C)cc1,5.8
4,O=c1oc2ccccc2c(O)c1Cc1c(O)c2ccccc2oc1=O,4.2
5,OCCN1CCN(CCCN2c3ccccc3Sc3ccc(Cl)cc32)CC1,1
6,Oc1c(Cl)cc(Cl)c2cccnc12,3
7,COc1ccc(Cl)cc1C(=O)NCCc1ccc(S(=O)(=O)NC(=O)NC2CCCCC2)cc1,2.3
8,CNc1ccc2oc(C[C@@H]3OC4(CC[C@@H]3C)O[C@H](C(C)C(=O)c3ccc[nH]3)[C@H](C)C[C@H]4C)nc2c1C(=O)O (stereo partly specified),5.5
9,Cc1cc2cc3c(C)cc(=O)oc3c(C)c2o1,3.8
10,C=Cc1c(C)c2cc3[nH]c(cc4nc(cc5nc(cc1[nH]2)C(C)=C5CCC(=O)O)C(CCC(=O)O)=C4C)c(C)c3C=C,0.005
11,COc1ccc2cc(CCC(C)=O)ccc2c1,10
12,CC(C)NNC(=O)c1ccncc1,16
13,O=C1c2ccc(O)c(O)c2C(=O)c2c(O)ccc(O)c21,2.8
14,C[C@@H]1O[C@@H](O[C@H]2[C@H](Oc3cc(O)c4c(c3)O[C@H](c3ccc(O)cc3)CC4=O)O[C@H](CO)[C@@H](O)[C@@H]2O)[C@H](O)[C@H](O)[C@H]1O,0.8
15,O=c1c2ccccc2[se]n1-c1ccccc1,0.2
16,CC1=NN(c2ccccc2)C(=O)C1,0.016
17,Clc1ccc(COC(Cn2ccnc2)c2ccc(Cl)cc2Cl)cc1 (stereo unspecified),3
18,CN1CCC(=C2c3ccccc3Sc3ccccc32)CC1,24
19,C[C@@]1(C(=O)O)CC[C@]2(C)CC[C@]3(C)C4=CC=C5C=C(O)C(=O)C=C5[C@]4(C)CC[C@@]3(C)[C@@H]2C1,0.4
20,CN1CCN(C2=Nc3cc(Cl)ccc3Nc3ccccc32)CC1,4.4
21,CN(C)CCCN1c2ccccc2CCc2ccc(Cl)cc21,28
22,CC1=C2C(=CO[C@H](C)[C@H]2C)C(=O)C(C(=O)O)=C1O,40
23,CCn1cc(C(=O)O)c(=O)c2cc3c(cc21)OCO3,2.3
24,Clc1ccc(C(OCCN2CCCCC2)c2ccccc2)cc1 (stereo unspecified),28
25,Cc1cc(O)cc(C)c1Cl,3.3
26,CNCCC=C1c2ccccc2CCc2ccccc21,1.8
